These results are taken from ChEMBL document CHEMBL5653615 (J Biol Chem, 2013).

The target of assay [1] is T1, Activin receptor type-1B (Homo sapiens) (UniProt P36896).
T1 sequence (whole entry): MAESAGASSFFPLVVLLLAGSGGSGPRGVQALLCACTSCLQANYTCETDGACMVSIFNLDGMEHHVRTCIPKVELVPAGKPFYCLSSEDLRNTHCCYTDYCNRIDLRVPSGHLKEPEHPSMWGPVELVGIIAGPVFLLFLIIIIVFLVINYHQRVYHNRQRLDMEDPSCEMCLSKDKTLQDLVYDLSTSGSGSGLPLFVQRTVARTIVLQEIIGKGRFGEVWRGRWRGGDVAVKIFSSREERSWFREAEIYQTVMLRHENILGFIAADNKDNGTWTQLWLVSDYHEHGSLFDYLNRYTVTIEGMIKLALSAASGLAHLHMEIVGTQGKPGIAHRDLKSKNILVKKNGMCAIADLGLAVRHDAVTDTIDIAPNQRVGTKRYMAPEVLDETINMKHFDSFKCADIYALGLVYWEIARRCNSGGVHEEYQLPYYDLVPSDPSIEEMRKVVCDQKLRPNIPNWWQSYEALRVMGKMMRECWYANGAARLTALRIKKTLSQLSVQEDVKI
In words: Inhibition of human ALK4 at 18.6 nM by HotSpot assay relative to control.

The target of assay [2] is Mitogen-activated protein kinase kinase kinase kinase 4 (Homo sapiens) (UniProt O95819). As to the kind of experiment: Inhibition of human HGK at 18.6 nM by HotSpot assay relative to control.
For assay [3], the target named is T2, Serine/threonine-protein kinase Sgk2 (Homo sapiens) (UniProt Q9HBY8).
T2 sequence (whole entry): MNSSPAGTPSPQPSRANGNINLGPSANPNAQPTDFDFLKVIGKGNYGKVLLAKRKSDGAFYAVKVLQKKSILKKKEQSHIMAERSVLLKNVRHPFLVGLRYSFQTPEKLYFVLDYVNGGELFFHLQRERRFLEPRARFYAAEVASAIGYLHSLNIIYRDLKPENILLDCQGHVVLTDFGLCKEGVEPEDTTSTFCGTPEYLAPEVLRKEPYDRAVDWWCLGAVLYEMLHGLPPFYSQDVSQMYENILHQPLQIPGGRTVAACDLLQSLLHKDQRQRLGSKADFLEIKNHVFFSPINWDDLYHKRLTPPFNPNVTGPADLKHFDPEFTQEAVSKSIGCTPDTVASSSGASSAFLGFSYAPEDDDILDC
In words: Inhibition of human SGK2 at 18.6 nM by HotSpot assay relative to control.

Assay [4] deals with T3, Tyrosine-protein kinase receptor TYRO3 (Homo sapiens) (UniProt Q06418).
T3 sequence (whole entry): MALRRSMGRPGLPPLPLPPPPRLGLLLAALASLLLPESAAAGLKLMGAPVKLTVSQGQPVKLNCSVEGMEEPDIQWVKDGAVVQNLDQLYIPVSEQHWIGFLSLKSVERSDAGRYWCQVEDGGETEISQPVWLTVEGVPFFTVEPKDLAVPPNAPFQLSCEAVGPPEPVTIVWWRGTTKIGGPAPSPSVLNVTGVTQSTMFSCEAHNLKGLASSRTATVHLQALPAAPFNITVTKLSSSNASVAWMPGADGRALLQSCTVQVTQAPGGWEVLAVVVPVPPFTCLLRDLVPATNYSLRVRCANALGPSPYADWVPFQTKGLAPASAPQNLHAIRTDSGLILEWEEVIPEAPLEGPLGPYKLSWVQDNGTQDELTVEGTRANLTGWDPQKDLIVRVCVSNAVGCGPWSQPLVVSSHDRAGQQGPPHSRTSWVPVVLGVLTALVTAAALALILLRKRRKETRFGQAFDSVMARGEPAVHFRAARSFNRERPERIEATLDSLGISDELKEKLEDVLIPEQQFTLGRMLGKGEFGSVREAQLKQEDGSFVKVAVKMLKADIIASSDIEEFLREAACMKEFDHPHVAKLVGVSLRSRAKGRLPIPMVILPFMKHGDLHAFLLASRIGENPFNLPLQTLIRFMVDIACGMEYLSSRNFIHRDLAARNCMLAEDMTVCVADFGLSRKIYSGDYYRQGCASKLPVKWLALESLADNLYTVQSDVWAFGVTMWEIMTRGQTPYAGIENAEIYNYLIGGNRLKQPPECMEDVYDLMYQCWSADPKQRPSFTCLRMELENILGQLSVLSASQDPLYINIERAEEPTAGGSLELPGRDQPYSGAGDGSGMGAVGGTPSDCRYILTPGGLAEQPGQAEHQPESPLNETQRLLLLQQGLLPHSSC
As to the kind of experiment: Inhibition of human SKY at 18.6 nM by HotSpot assay relative to control.

The target in assay [5] is Casein kinase I isoform gamma-2 (Homo sapiens) (UniProt P78368). As to the kind of experiment: Inhibition of human CK1g2 at 1.82 nM by HotSpot assay relative to control.
Assay [6] concerns the target T4, Beta-adrenergic receptor kinase 1 (Homo sapiens) (UniProt P25098).
T4 sequence (whole entry): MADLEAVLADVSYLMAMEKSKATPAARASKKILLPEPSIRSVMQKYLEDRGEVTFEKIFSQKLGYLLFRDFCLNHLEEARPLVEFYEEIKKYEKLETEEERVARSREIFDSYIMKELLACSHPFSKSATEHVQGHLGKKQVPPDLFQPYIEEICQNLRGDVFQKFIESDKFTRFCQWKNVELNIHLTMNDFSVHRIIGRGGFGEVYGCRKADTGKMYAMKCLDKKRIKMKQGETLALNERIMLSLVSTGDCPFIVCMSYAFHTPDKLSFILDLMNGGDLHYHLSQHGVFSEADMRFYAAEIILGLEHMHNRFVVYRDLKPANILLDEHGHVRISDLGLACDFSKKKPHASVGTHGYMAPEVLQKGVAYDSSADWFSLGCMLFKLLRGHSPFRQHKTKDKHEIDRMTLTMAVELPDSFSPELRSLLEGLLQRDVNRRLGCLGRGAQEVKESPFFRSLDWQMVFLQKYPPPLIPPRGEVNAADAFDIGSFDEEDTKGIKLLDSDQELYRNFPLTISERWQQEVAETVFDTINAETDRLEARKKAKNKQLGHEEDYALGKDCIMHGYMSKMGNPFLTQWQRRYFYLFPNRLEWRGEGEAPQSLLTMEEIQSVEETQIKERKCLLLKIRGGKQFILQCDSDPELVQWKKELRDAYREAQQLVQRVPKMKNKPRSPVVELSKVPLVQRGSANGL
In words: Inhibition of human GRK2 at 1.82 nM by HotSpot assay relative to control.

The target of assay [7] is Myosin light chain kinase 2, skeletal/cardiac muscle (Homo sapiens) (UniProt Q9H1R3). In words: Inhibition of human MYLK2 at 1.82 nM by HotSpot assay relative to control.
Assay [8] deals with SRSF protein kinase 3 (Homo sapiens) (UniProt Q9UPE1). As to the kind of experiment: Inhibition of human STK23 at 1.82 nM by HotSpot assay relative to control.
The target in assay [9] is Mitogen-activated protein kinase 14 (Homo sapiens) (UniProt Q16539). In words: Inhibition of human MAPK14 at 1.82 nM by HotSpot assay relative to control.
For assay [10], the target named is SRSF protein kinase 1 (Homo sapiens) (UniProt Q96SB4). As to the kind of experiment: Inhibition of human SRPK1 at 1.82 nM by HotSpot assay relative to control.

The term inhibition denotes the relative decrease from the control value, in per cent.

Sequence of Myosin light chain kinase 2, skeletal/cardiac muscle (Homo sapiens) (Q9H1R3 whole entry): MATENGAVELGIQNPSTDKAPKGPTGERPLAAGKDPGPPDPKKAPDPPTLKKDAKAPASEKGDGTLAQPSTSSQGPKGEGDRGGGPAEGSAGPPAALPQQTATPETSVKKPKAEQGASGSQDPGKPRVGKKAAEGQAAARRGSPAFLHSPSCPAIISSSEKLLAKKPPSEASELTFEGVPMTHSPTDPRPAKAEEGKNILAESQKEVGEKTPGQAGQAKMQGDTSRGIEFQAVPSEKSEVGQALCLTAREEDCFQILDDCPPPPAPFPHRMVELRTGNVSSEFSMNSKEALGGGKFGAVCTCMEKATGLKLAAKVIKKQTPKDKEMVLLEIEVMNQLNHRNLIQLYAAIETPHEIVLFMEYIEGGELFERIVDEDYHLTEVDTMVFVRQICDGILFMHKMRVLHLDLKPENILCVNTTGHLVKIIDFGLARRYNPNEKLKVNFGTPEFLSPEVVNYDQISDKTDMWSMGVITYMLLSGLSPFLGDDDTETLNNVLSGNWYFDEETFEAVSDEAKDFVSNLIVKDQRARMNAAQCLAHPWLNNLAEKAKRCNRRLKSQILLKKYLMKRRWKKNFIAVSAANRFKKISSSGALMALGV
Sequence of SRSF protein kinase 1 (Homo sapiens) (Q96SB4 whole entry): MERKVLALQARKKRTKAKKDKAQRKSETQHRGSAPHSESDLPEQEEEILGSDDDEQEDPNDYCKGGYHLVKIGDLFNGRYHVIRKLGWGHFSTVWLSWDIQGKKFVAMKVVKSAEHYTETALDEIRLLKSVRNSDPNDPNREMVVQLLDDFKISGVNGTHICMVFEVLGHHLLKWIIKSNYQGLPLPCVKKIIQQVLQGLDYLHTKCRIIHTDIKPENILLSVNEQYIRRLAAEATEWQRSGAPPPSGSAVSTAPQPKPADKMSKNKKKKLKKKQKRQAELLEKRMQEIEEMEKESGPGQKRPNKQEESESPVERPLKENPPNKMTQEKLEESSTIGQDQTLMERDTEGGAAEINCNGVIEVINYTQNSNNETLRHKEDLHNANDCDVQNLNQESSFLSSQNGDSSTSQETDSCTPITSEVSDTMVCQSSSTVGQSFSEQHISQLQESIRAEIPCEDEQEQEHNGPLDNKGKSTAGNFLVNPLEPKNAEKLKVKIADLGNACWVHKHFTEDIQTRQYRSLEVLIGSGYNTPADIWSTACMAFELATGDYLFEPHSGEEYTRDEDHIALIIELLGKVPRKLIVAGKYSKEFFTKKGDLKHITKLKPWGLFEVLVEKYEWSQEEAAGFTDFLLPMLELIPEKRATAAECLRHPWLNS
Sequence of Casein kinase I isoform gamma-2 (Homo sapiens) (P78368 whole entry, looked up, canonical isoform): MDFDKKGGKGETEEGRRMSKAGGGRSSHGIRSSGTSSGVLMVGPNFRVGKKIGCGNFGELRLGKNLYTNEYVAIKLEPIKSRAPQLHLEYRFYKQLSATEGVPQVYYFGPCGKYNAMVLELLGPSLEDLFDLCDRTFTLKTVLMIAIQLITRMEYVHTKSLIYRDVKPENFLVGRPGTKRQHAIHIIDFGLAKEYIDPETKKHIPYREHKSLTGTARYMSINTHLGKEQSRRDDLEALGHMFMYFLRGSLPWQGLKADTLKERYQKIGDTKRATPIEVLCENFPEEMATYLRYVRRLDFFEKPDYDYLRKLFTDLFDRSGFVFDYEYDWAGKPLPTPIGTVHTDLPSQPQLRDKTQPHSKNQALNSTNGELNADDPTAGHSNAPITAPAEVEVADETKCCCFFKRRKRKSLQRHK
Sequence of Mitogen-activated protein kinase 14 (Homo sapiens) (Q16539 whole entry): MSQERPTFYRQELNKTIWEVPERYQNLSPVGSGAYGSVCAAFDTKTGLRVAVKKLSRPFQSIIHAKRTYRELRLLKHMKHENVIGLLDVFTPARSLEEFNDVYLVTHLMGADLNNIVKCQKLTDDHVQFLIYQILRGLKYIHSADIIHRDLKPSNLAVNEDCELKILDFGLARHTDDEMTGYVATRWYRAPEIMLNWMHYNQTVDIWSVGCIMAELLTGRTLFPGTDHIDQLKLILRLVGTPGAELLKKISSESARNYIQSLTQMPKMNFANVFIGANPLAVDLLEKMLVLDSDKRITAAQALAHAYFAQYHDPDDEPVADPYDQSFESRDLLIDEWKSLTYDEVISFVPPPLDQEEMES
Sequence of SRSF protein kinase 3 (Homo sapiens) (Q9UPE1 whole entry): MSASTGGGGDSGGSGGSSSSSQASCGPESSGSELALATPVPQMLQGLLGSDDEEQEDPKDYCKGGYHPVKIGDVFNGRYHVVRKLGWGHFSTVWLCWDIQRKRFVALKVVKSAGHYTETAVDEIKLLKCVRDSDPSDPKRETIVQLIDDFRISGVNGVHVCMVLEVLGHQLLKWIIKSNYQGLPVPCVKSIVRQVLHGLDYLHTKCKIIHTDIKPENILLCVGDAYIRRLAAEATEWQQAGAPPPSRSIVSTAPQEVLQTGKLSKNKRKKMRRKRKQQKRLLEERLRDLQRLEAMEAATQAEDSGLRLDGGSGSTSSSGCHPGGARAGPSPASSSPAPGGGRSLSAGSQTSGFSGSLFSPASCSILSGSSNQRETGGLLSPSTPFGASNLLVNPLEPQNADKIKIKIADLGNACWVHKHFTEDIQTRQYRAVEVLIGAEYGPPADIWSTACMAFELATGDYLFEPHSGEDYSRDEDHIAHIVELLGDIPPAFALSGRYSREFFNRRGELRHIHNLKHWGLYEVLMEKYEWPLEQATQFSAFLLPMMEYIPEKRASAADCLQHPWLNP
Sequence of Mitogen-activated protein kinase kinase kinase kinase 4 (Homo sapiens) (O95819 2-1239 limits assumed): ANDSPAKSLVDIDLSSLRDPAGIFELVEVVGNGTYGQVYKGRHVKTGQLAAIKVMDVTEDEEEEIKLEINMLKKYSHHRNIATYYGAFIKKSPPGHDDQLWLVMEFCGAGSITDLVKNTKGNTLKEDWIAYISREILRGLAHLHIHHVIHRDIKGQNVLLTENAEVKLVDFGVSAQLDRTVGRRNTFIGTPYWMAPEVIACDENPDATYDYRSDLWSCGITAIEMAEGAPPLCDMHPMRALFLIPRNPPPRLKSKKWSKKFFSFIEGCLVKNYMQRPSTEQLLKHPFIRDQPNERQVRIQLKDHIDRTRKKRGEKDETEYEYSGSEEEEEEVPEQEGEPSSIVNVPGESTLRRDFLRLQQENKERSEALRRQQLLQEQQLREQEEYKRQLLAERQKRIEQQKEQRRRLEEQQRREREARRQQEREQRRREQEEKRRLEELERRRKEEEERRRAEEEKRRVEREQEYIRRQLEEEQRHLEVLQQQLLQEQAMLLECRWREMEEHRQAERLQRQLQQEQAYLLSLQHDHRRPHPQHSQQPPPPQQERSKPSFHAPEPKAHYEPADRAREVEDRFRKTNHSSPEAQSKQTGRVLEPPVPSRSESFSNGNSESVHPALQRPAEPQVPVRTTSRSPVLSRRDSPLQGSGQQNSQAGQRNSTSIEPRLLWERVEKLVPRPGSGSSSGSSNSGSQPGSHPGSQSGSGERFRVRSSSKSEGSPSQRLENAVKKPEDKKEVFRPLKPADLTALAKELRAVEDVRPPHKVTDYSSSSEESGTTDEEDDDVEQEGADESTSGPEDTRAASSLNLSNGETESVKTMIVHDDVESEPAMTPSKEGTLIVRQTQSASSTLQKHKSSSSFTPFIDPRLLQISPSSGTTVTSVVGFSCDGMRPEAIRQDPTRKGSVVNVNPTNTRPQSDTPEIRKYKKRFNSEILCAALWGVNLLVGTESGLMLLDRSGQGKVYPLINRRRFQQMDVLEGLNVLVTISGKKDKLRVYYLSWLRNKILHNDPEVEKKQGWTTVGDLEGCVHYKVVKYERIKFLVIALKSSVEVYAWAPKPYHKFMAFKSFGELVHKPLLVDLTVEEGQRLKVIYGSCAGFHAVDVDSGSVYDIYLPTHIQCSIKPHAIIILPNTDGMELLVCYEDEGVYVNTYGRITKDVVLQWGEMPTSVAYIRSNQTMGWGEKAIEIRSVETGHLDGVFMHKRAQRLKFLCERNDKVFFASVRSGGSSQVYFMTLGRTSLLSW

For the compound `C[C@]1(O)C[C@@H](c2nc(-c3ccc4ccc(-c5ccccc5)nc4c3)c3c(N)nccn32)C1`, the inhibition is -0.44% in [1], -9.59% in assay [2], -3.95% in assay [3] and 1.42% in [4].

Turning to `C[C@@]1(C(=O)Nc2ccc(F)nc2)CCCN1c1nc(Nc2cc(C3CC3)n[nH]2)c2cccn2n1`, the inhibition in assay [5] is -3.24%; in [6] it was -0.25%; in [7] it was -4.22%; in assay [8], -7.78%; in [9] it was -2.94%; in assay [10], -4.32%.
